Measurements: ChEMBL document CHEMBL2046411, “Virtual Screening and X-ray Crystallography for Human Kallikrein 6 Inhibitors with an Amidinothiophene P1 Group” (ACS Med Chem Lett, 2012)

Biological target: Kallikrein-6 (Homo sapiens, UniProt Q92876)
Assay: Inhibition of N-terminus His6-tagged human kallikrein 6 expressed in baculovirus infected insect sf9 cells using Boc-Phe-Ser-Arg-AMC as substrate by fluorescence analysis

Compound `COc1ccc2ccc(S(=O)(=O)N(Cc3ccccc3)[C@H]3CCN(Cc4ccc(C(=N)N)s4)C3=O)cc2c1` has an IC50 of 1500 nM.
